Data taken from US20100256107A1, “PREPARATION COMPOSITION” (Dainippon Sumitomo Pharma Co., Ltd., priority 2007, published 2010).

Experiments:
[1] = Control of coloration in an aqueous solution formulation containing sodium bicarbonate (absorbance 380 nm); format: physicochemical; settings: for change in absorbance, just after dissolution / change in absorbance, preservation time 1 hr / change in absorbance, preservation time 2 hr / change in absorbance, preservation time 3 hr / change in absorbance, preservation time 4 hr / change in absorbance, preservation time 5 hr / change in absorbance, preservation time 6 hr: 25° C., 380 nm
Description: Multiple vials were prepared, and Compound A, imipenem and sodium bicarbonate in amounts indicated in Table 11 were weighed, respectively and each mixture was put in each vial. A physiological saline (100 ml) was added to each vial to be dissolved. In addition, to a vial containing Tienam® for infusion (0.5 g potency/vial) was added a physiological saline (100 ml). Coloration (change of color) just after dissolution and when the solution was preserved at one hour intervals for 6 hours at 25° C. were measured by absorbency.
• Conditions of measurement by spectrophotometer; • cell: quartz 12.5 mm×12.5 mm×45 mm, capacity 3.5 ml • wavelength: 380 nm • measurement temperature: 25° C. • instrument: UV-2200A (Shimadzu)
The numbers described in columns of “just after dissolution” and each “preservation time” on Table 12 show values of change in absorbance just after dissolution when measured under the above conditions.

[2] = Stability in an aqueous solution of a formulation containing sodium bicarbonate (HPLC); format: physicochemical; settings: for reduction of amount of Compound A: 6 hours at 25° C.
Description: Multiple vials were prepared and amounts of Compound A and sodium bicarbonate indicated in Table 5 were weighed and filled in each vial. Thereto was added physiological saline (100 ml). Amounts of Compound A and its degradation, Compounds B and C were measured just after dissolution and after preservation for 6 hours at 25° C.
• column: SUMIPAX ODS-A212 (silica gel binding with octadecyl group, • particle size: 5 μm; 6.0 mmφ×15 cm) • detector: ultraviolet spectrophotometer (wavelength: 220 nm) • column temperature: constant temperature around at 25° C. • mobile phase: A solution; 5 mmol/L phosphate buffer (pH7) and acetonitrile (300:23), B solution: acetonitrile • flow rate: 1.0 mL/min. • gradient condition: as shown in Table 6
The numbers described in columns of “just after dissolution” and “after preservation for 6 hours at 25° C.” on Table 8 show area % per total peaks which appear until 55 minutes under the above HPLC conditions.

[3] = 0.5 g/vial + sodium bicarbonate 0.0 mg/vial in physiological saline 100 ml
[4] = 0.5 g/vial + sodium bicarbonate 1.0 mg/vial in physiological saline 100 ml
[5] = 0.5 g/vial + sodium bicarbonate 2.5 mg/vial in physiological saline 100 ml
[6] = 0.5 g/vial + sodium bicarbonate 5.0 mg/vial in physiological saline 100 ml
[7] = 0.5 g/vial + sodium bicarbonate 10 mg/vial in physiological saline 100 ml
[8] = 0.5 g/vial + sodium bicarbonate 20 mg/vial in physiological saline 100 ml
[9] = 0.5 g/vial + sodium bicarbonate 50 mg/vial in physiological saline 100 ml
[10] = Comp. A 0.5 g/vial + sodium bicarbonate 0.0 mg/vial in physiological saline 100 ml
[11] = Comp. A 0.5 g/vial + sodium bicarbonate 1.0 mg/vial in physiological saline 100 ml
[12] = Comp. A 0.5 g/vial + sodium bicarbonate 2.5 mg/vial in physiological saline 100 ml
[13] = Comp. A 0.5 g/vial + sodium bicarbonate 5.0 mg/vial in physiological saline 100 ml
[14] = Comp. A 0.5 g/vial + sodium bicarbonate 10 mg/vial in physiological saline 100 ml
[15] = Comp. A 0.5 g/vial + sodium bicarbonate 15 mg/vial in physiological saline 100 ml
[16] = Comp. A 0.5 g/vial + sodium bicarbonate 20 mg/vial in physiological saline 100 ml
[17] = Comp. A 0.5 g/vial + sodium bicarbonate 50 mg/vial in physiological saline 100 ml
[18] = Comp. A 0.5 g/vial + sodium bicarbonate 100 mg/vial in physiological saline 100 ml

change in absorbance, just after dissolution [1, 3]: 0.00 Abs
change in absorbance, preservation time 1 hr [1, 3]: 0.01 Abs
change in absorbance, preservation time 2 hr [1, 3]: 0.03 Abs
change in absorbance, preservation time 3 hr [1, 3]: 0.05 Abs
change in absorbance, preservation time 4 hr [1, 3]: 0.07 Abs
change in absorbance, preservation time 5 hr [1, 3]: 0.11 Abs
change in absorbance, preservation time 6 hr [1, 3]: 0.13 Abs
change in absorbance, just after dissolution [1, 4]: 0.00 Abs
change in absorbance, preservation time 1 hr [1, 4]: 0.00 Abs
change in absorbance, preservation time 2 hr [1, 4]: 0.01 Abs
change in absorbance, preservation time 3 hr [1, 4]: 0.02 Abs
change in absorbance, preservation time 4 hr [1, 4]: 0.04 Abs
change in absorbance, preservation time 5 hr [1, 4]: 0.06 Abs
change in absorbance, preservation time 6 hr [1, 4]: 0.08 Abs
change in absorbance, just after dissolution [1, 5]: 0.00 Abs
change in absorbance, preservation time 1 hr [1, 5]: 0.00 Abs
change in absorbance, preservation time 2 hr [1, 5]: 0.00 Abs
change in absorbance, preservation time 3 hr [1, 5]: 0.00 Abs
change in absorbance, preservation time 4 hr [1, 5]: 0.00 Abs
change in absorbance, preservation time 5 hr [1, 5]: 0.01 Abs
change in absorbance, preservation time 6 hr [1, 5]: 0.01 Abs
change in absorbance, just after dissolution [1, 6]: 0.00 Abs
change in absorbance, preservation time 1 hr [1, 6]: 0.00 Abs
change in absorbance, preservation time 2 hr [1, 6]: 0.00 Abs
change in absorbance, preservation time 3 hr [1, 6]: 0.00 Abs
change in absorbance, preservation time 4 hr [1, 6]: 0.00 Abs
change in absorbance, preservation time 5 hr [1, 6]: 0.00 Abs
change in absorbance, preservation time 6 hr [1, 6]: 0.00 Abs
change in absorbance, just after dissolution [1, 7]: 0.00 Abs
change in absorbance, preservation time 1 hr [1, 7]: 0.00 Abs
change in absorbance, preservation time 2 hr [1, 7]: 0.00 Abs
change in absorbance, preservation time 3 hr [1, 7]: 0.00 Abs
change in absorbance, preservation time 4 hr [1, 7]: 0.00 Abs
change in absorbance, preservation time 5 hr [1, 7]: 0.00 Abs
change in absorbance, preservation time 6 hr [1, 7]: 0.00 Abs
change in absorbance, just after dissolution [1, 8]: 0.00 Abs
change in absorbance, preservation time 1 hr [1, 8]: 0.00 Abs
change in absorbance, preservation time 2 hr [1, 8]: 0.00 Abs
change in absorbance, preservation time 3 hr [1, 8]: 0.00 Abs
change in absorbance, preservation time 4 hr [1, 8]: 0.00 Abs
change in absorbance, preservation time 5 hr [1, 8]: 0.00 Abs
change in absorbance, preservation time 6 hr [1, 8]: 0.00 Abs
change in absorbance, just after dissolution [1, 9]: 0.00 Abs
change in absorbance, preservation time 1 hr [1, 9]: 0.00 Abs
change in absorbance, preservation time 2 hr [1, 9]: 0.00 Abs
change in absorbance, preservation time 3 hr [1, 9]: 0.00 Abs
change in absorbance, preservation time 4 hr [1, 9]: 0.00 Abs
change in absorbance, preservation time 5 hr [1, 9]: 0.00 Abs
change in absorbance, preservation time 6 hr [1, 9]: 0.00 Abs
suppression of coloration of the solution ([1]; at least 2.5 mg (0.005 part by weight) of sodium bicarbonate per 500 mg): observed
Comp. A after preservation for 6 hrs. at 25° C. [2, 10]: 95.8 area %
Comp. A just after dissolution [2, 10]: 98.8 area %
Comp. B after preservation for 6 hrs. at 25° C. [2, 10]: 3.0 area %
Comp. B just after dissolution [2, 10]: 0.7 area %
Comp. C after preservation for 6 hrs. at 25° C. [2, 10]: 0.5 area %
Comp. C just after dissolution [2, 10]: 0.0 area %
Comp. A after preservation for 6 hrs. at 25° C. [2, 11]: 96.6 area %
Comp. A just after dissolution [2, 11]: 98.9 area %
Comp. B after preservation for 6 hrs. at 25° C. [2, 11]: 2.7 area %
Comp. B just after dissolution [2, 11]: 0.7 area %
Comp. C after preservation for 6 hrs. at 25° C. [2, 11]: 0.2 area %
Comp. C just after dissolution [2, 11]: 0.0 area %
Comp. A after preservation for 6 hrs. at 25° C. [2, 12]: 96.6 area %
Comp. A just after dissolution [2, 12]: 98.9 area %
Comp. B after preservation for 6 hrs. at 25° C. [2, 12]: 2.8 area %
Comp. B just after dissolution [2, 12]: 0.7 area %
Comp. C after preservation for 6 hrs. at 25° C. [2, 12]: ≤ 0.1 area %
Comp. C just after dissolution [2, 12]: 0.0 area %
Comp. C after preservation for 6 hrs. at 25° C. ([2]; Comp. A 0.5 g/vial + sodium bicarbonate 2.5 mg/vial in physiological saline 100 ml, listed as Comp. A): 0.0 area %
Comp. A after preservation for 6 hrs. at 25° C. [2, 13]: 96.3 area %
Comp. A just after dissolution [2, 13]: 98.9 area %
Comp. B after preservation for 6 hrs. at 25° C. [2, 13]: 3.0 area %
Comp. B just after dissolution [2, 13]: 0.6 area %
Comp. C after preservation for 6 hrs. at 25° C. [2, 13]: 0.0 area %
Comp. C just after dissolution [2, 13]: 0.0 area %
Comp. A after preservation for 6 hrs. at 25° C. [2, 14]: 95.9 area %
Comp. A just after dissolution [2, 14]: 98.9 area %
Comp. B after preservation for 6 hrs. at 25° C. [2, 14]: 3.5 area %
Comp. B just after dissolution [2, 14]: 0.7 area %
Comp. C after preservation for 6 hrs. at 25° C. [2, 14]: 0.0 area %
Comp. C just after dissolution [2, 14]: 0.0 area %
Comp. A after preservation for 6 hrs. at 25° C. [2, 15]: 95.4 area %
Comp. A just after dissolution [2, 15]: 98.9 area %
Comp. B after preservation for 6 hrs. at 25° C. [2, 15]: 3.9 area %
Comp. B just after dissolution [2, 15]: 0.6 area %
Comp. C after preservation for 6 hrs. at 25° C. [2, 15]: 0.0 area %
Comp. C just after dissolution [2, 15]: 0.0 area %
Comp. A after preservation for 6 hrs. at 25° C. [2, 16]: 95.2 area %
Comp. A just after dissolution [2, 16]: 98.8 area %
Comp. B after preservation for 6 hrs. at 25° C. [2, 16]: 4.1 area %
Comp. B just after dissolution [2, 16]: 0.6 area %
Comp. C after preservation for 6 hrs. at 25° C. [2, 16]: 0.0 area %
Comp. C just after dissolution [2, 16]: 0.0 area %
Comp. A after preservation for 6 hrs. at 25° C. [2, 17]: 93.5 area %
Comp. A just after dissolution [2, 17]: 98.6 area %
Comp. B after preservation for 6 hrs. at 25° C. [2, 17]: 5.5 area %
Comp. B just after dissolution [2, 17]: 0.7 area %
Comp. C after preservation for 6 hrs. at 25° C. [2, 17]: 0.0 area %
Comp. C just after dissolution [2, 17]: 0.0 area %
Comp. A after preservation for 6 hrs. at 25° C. [2, 18]: 92.4 area %
Comp. A just after dissolution [2, 18]: 98.9 area %
Comp. B after preservation for 6 hrs. at 25° C. [2, 18]: 6.6 area %
Comp. B just after dissolution [2, 18]: 0.6 area %
Comp. C after preservation for 6 hrs. at 25° C. [2, 18]: 0.0 area %
Comp. C just after dissolution [2, 18]: 0.0 area %
reduction of amount of Compound A ([2]; sodium bicarbonate increased to 20 mg from 15 mg per Compound A 500 mg): 0.2%
reduction of amount of Compound A ([2]; sodium bicarbonate increased to 50 mg from 20 mg per Compound A 500 mg): 1.7%
SMILES: C[C@H]1C=C(c2csc(SC3=C(C(=O)O)N4C(=O)[C@H]([C@@H](C)O)[C@H]4[C@H]3C)n2)CN1 [Compound A, (4R,5S,6S)-6-[(1R)-1-hydroxyethyl]-4-methyl-3-({4-[(5S)-5-methyl-2,5-dihydro-1H-pyrrol-3-yl]-1,3-thiazol-2-yl}sulfanyl)-7-oxo-1-azabicyclo[3.2.0]hept-2-ene-2-carboxylic acid]
coloration by the visual inspection compared with a solution just after dissolution ([1]; sodium bicarbonate 2.5 mg per 500 mg, physiological saline, 6 hours at 25° C.): coloration was not observed by the visual inspection
